Read-outs that look alike come from different tables or passages of the source.
Key:
Vero E6 cells [1] = conditions: African green monkey, 48 h
in vitro = conditions: human
[2] = Cytotoxicity in uninfected Vero E6 cells, CellTiter-Glo; conditions: African green monkey
Vero E6 cells [3] = experiment: as above

With `C[C@@H](NC(=O)c1ccccc1CCC(=O)NNC(=O)CCl)c1cccc2ccccc12` [Compound 9, (R)-2-(3-(2-(2-chloroacetyl)hydrazineyl)-3-oxopropyl)-N-(1-(naphthalen-1-yl)ethyl)benzamide] the “cytotoxicity, %cell viability” value (Vero E6 cells [1]; 2.08 µM) was 100.620%, the “cytotoxicity, %cell viability” value (Vero E6 cells [1]; 8.33 µM) was 103.333% and the “cytotoxicity, %cell viability” value (Vero E6 cells [1]; 16.65 µM) was 94.042%.

Work on `COC(=O)/C=C/C(=O)NNC(=O)CCc1ccccc1C(=O)N[C@H](C)c1cccc2ccccc12` [Compound 7, methyl(R,E)-4-(2-(3-(2-((1-(naphthalen-1 yl)ethyl)carbamoyl)phenyl)propanoyl)hydrazineyl)-4-oxobut-2-enoate] yielded a CC50 (in vitro) of over 10 µM, a cytotoxicity at 0.01 µM (in vitro) of 8.4% and a cytotoxicity at 0.1 µM (in vitro) of 3.4%. For the same molecule, the cytotoxicity at 1 µM (in vitro) was 0.326%, the cytotoxicity at 10 µM (in vitro) was 18.1% and the cytotoxicity at 0.01 µM (in vitro; Percent Cytotoxicity (Neutral Red), Caco-2, SARS2-740 (Delta set), 0.01 µM) was 0%. For the same molecule, the cytotoxicity at 0.1 µM (in vitro; Percent Cytotoxicity (Neutral Red), Caco-2, SARS2-740 (Delta set), 0.1 µM) was 0%, the cytotoxicity at 1 µM (in vitro; Percent Cytotoxicity (Neutral Red), Caco-2, SARS2-740 (Delta set), 1 µM) was 8% and the cytotoxicity at 10 µM (in vitro; Percent Cytotoxicity (Neutral Red), Caco-2, SARS2-740 (Delta set), 10 µM) was 4.4%. For the same molecule, the cytotoxicity at 0.01 µM (in vitro; Percent Cytotoxicity (Neutral Red), Caco-2, SARS2-740 (USA-WA1/2020 set), 0.01 µM) was 1.6%, the cytotoxicity at 0.1 µM (in vitro; Percent Cytotoxicity (Neutral Red), Caco-2, SARS2-740 (USA-WA1/2020 set), 0.1 µM) was 0% and the cytotoxicity at 1 µM (in vitro; Percent Cytotoxicity (Neutral Red), Caco-2, SARS2-740 (USA-WA1/2020 set), 1 µM) was 0%. The cytotoxicity at 10 µM (in vitro; Percent Cytotoxicity (Neutral Red), Caco-2, SARS2-740 (USA-WA1/2020 set), 10 µM) was 39.6%, the viability at 48 h, 2.08 µM ([2]; % cell viability, cytotoxicity, 2.08 uM) was 100% and the viability at 48 h, 8.33 µM ([2]; % cell viability, cytotoxicity, 8.33 uM) was 99.6%. The viability at 48 h, 16.65 µM ([2]; % cell viability, cytotoxicity, 16.65 uM) was 95.7%, the CC50 at 48 h ([2]; CC50, uninfected Vero E6 cells) was over 30 µM and the “% cell viability, cytotoxicity” value (Vero E6 cells [3]; 2.08 uM) was 98.575%. For the same molecule, the “% cell viability, cytotoxicity” value (Vero E6 cells [3]; 8.33 uM) was 99.545%, the “% cell viability, cytotoxicity” value (Vero E6 cells [3]; 16.65 uM) was 90.390% and the “CC50 < 30 μM” value (Vero E6 cells [3]; uninfected Vero E6 cells, Yes/No) was “No”.

From paper PMC10044120, “Potent and selective covalent inhibition of the papain-like protease from SARS-CoV-2” (Nature Communications, 2023)
